Results from PubChem BioAssay AID1963442 (Molecular Pharmacology Branch, DTP, NCI, 2024).

Test system: MPNST complex spheroid with HUVEC/MSC, growth, % test/control
Experiment: Anticancer human tumor MPNST cell line growth inhibition [Asc];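 note: compounds left on spheroids for seven days before reading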
Conditions: for IC50: curve of first compound; for viability, T/C: stronger effect = lower value
Procedure: Multicellular complex tumor spheroid response to apoptosis pathway targeting inhibitors Alrizomadlin, Pelcitoclax, and Dasminapant in combination with a variety of drugs and investigational agents in selected tumor cell lines
The MDM2 inhibitor alrizomadlin, the Bcl-2/Bcl-xL inhibitor pelcitoclax, and the IAPs inhibitor dasminapant were evaluated both individually and in combination with standard of care and investigational anticancer small molecules within a complex spheroid model of solid tumors. . Complex spheroids include a stromal component modeled by human endothelial cells (HUVEC) and fibroblasts modeled by human mesenchymal stem cells (MSCs). The concentration ranges selected for each drug and investigational agent were based upon clinically achievable concentrations if the clinical Cmax of the agent was known.
Compounds. The drugs and investigational agents: alrizomadlin (APG-115; NSC831270), pelcitoclax (APG-1252; NSC835773), dasminapant (APG-1387;NSC834197), TAK-243 (NSC785004), copanlisib (NSC809693), olaparib (NSC753686), talazoparib (NSC767125), cobimetinib (NSC 768068), eltanexor (KPT-8602, NSC 794443), abemaciclib (NSC 768073), sotorasib (NSC818433), adagrasib (NSC 831453), MRTX-1133 (NSC 836407), Iadademestat (ORY1001, NSC 806812), and RMC-4630 (NSC839698), were obtained from the NCI Developmental Therapeutics Program Chemical Repository. The FDA-approved anticancer drug set is available from the Developmental Therapeutics Program at https://dtp.cancer.gov/organization/dscb/obtaining/available plates.htm. […] The stock solutions were prepared in dimethyl sulfoxide (DMSO, Sigma-Aldrich, St. Louis, MO, cat. D2650) at 800-fold the tested concentration and stored at -70 degrees C prior to their use. All drugs and investigational agents were tested over a range starting from a high concentration at or near the clinical Cmax and decreasing in half-log increments. If the clinical Cmax for an agent had not been determined, the highest concentration tested was 10 microM.
The patient-derived cancer (PDC) cell lines include five colon adenocarcinomas: 186277-243-T-J2-PDC, 616215-338-R-J1-PDC, 439559-082-T-J2-PDC, 463943-066-T-J2-PDC, and 519858-162-T-J1-PDC; three pancreatic carcinomas: 323965-272-R-J2-PDC, 521955-158-R6-J3-PDC, and 521955-158-R2-J5-PDC; two uterine sarcomas: 327498-152-R-J2-PDC and 993429-296-R-J1-PDC; two rhabdomyosarcomas: 755483-174-R-J1-PDC and 772245-204-R-J1-PDC; two soft tissue sarcomas: 126254-015-R-J1-PDC and 494315-158-R-J1-PDC; two malignant fibrous histiocytomas: 317291-083-R-J1-PDC and 596521-263-R-J1-PDC; two breast carcinomas: 171881-019-R-J1-PDC and 885512-296-R-J2-PDC; and one ovarian carcinoma: 6556581-035-R-J-PDC were obtained from the NCI PDMR, (https://pdmr.cancer.gov). The established cell lines HSSY-2 synovial sarcoma (RRID:CVCL 8719), SYO-1 synovial sarcoma (RRID:CVCL_7146), MPNST malignant peripheral neural sheath tumor were obtained from the Sloan Kettering Institute. The following established cell lines were purchased from the American Type Culture Collection (ATCC, Manassas, VA), Sor the received from the NCI repository:, PANC-1 pancreatic carcinoma (CRL-1469, RRID:CVCL_0480), OVCAR-5 ovarian carcinoma (RRID:CVCL_1628), OVCAR-8 ovarian carcinoma (RRID:CVCL_1629), , MCF-7 breast carcinoma (CRL-12584, RRID:CVCL_0031), MDA-MB-231 breast carcinoma (CRL-12532, RRID:CVCL_0062), NCI-H1876 small cell lung carcinoma (CRL-5902, RRID:CVCL_1503), NCI-H510A small cell lung carcinoma (HTB-184, RRID:CVCL_1565), NCI-H1417 (CRL-5869, RRID:CVCL_1469), and NCI-H196 small cell lung carcinoma (CRL-5823, RRID:CVCL_1509). Dr. Peter Houghton (Greehey Children's Cancer Research Institute, University of Texas Health Science Center, San Antonio, TX) provided Rh-18 rhabdomyosarcoma (RRID:CVCL_1659). Pooled donor human umbilical vein endothelial cells (HUVEC, Lonza, cat. CC-2519) and human mesenchymal stem cells (hMSC, Lonza, cat. PT-2501) were purchased from Lonza (Walkersville, MD).
Cell Culture. […]

[1] = second compound 0.1 µM, first compound 0.00316 µM
[2] = second compound 0.1 µM, first compound 0.01 µM
[3] = second compound 0.1 µM, first compound 0.0316 µM
[4] = second compound 0.1 µM, first compound 0.1 µM
[5] = second compound 0.316 µM, first compound 0.00316 µM
[6] = second compound 0.316 µM, first compound 0.01 µM
[7] = second compound 0.316 µM, first compound 0.0316 µM
[8] = second compound 0.316 µM, first compound 0.1 µM
[9] = second compound 1 µM, first compound 0.00316 µM
[10] = second compound 1 µM, first compound 0.01 µM
[11] = second compound 1 µM, first compound 0.0316 µM
[12] = second compound 1 µM, first compound 0.1 µM

COc1c(OCCCN2CCOCC2)ccc2c3n(c(=NC(=O)c4cnc(N)nc4)nc12)CCN3 + CNC(C)C(=O)NC1CN(S(=O)(=O)c2cccc(S(=O)(=O)N3CCC4CCC(C(=O)NC(c5ccccc5)c5ccccc5)N4C(=O)C(NC(=O)C(C)NC)C3)c2)CCC2CCC(C(=O)NC(c3ccccc3)c3ccccc3)N2C1=O
IC50 (second compound 0.00316 µM): 0.0171 µM
IC50 (second compound 0.01 µM): 0.0294 µM
IC50 (second compound 0.0316 µM): 0.0246 µM
IC50 (second compound 0.1 µM): 0.0156 µM
IC50 (second compound 0.316 µM): 0.0132 µM
IC50 (second compound 1 µM): 0.01 µM
viability, T/C (second compound 0.00316 µM, first compound 0.00316 µM): 89.4%
viability, T/C (second compound 0.00316 µM, first compound 0.01 µM): 66.3%
viability, T/C (second compound 0.00316 µM, first compound 0.0316 µM): 28.6%
viability, T/C (second compound 0.00316 µM, first compound 0.1 µM): 24.9%
viability, T/C (second compound 0.00316 µM, first compound 0.316 µM): 9.54%
viability, T/C (second compound 0.00316 µM, first compound 1 µM): 5.55%
viability, T/C (second compound 0.01 µM, first compound 0.00316 µM): 81.5%
viability, T/C (second compound 0.01 µM, first compound 0.01 µM): 71.1%
viability, T/C (second compound 0.01 µM, first compound 0.0316 µM): 49.9%
viability, T/C (second compound 0.01 µM, first compound 0.1 µM): 18.6%
viability, T/C (second compound 0.01 µM, first compound 0.316 µM): 10.2%
viability, T/C (second compound 0.01 µM, first compound 1 µM): 5.07%
viability, T/C (second compound 0.0316 µM, first compound 0.00316 µM): 104%
viability, T/C (second compound 0.0316 µM, first compound 0.01 µM): 61.6%
viability, T/C (second compound 0.0316 µM, first compound 0.0316 µM): 57.1%
viability, T/C (second compound 0.0316 µM, first compound 0.1 µM): 19.4%
viability, T/C (second compound 0.0316 µM, first compound 0.316 µM): 9.82%
viability, T/C (second compound 0.0316 µM, first compound 1 µM): 4.9%
viability, T/C [1]: 90.1%
viability, T/C [2]: 59.8%
viability, T/C [3]: 32.2%
viability, T/C [4]: 25.8%
viability, T/C (second compound 0.1 µM, first compound 0.316 µM): 13.8%
viability, T/C (second compound 0.1 µM, first compound 1 µM): 5.12%
viability, T/C [5]: 78.7%
viability, T/C [6]: 52.2%
viability, T/C [7]: 39.3%
viability, T/C [8]: 19.8%
viability, T/C (second compound 0.316 µM, first compound 0.316 µM): 11.1%
viability, T/C (second compound 0.316 µM, first compound 1 µM): 5.92%
viability, T/C [9]: 65.7%
viability, T/C [10]: 51%
viability, T/C [11]: 32%
viability, T/C [12]: 21.2%
viability, T/C (second compound 1 µM, first compound 0.316 µM): 10.2%
viability, T/C (second compound 1 µM, first compound 1 µM): 5.66%

Cn1ncnc1[C@H]1c2n[nH]c(=O)c3cc(F)cc(c23)N[C@@H]1c1ccc(F)cc1 + Cc1c(S(C)(=O)=O)c(-c2cc(F)cc(N3CCN(c4ccc(NS(=O)(=O)c5ccc(NC(CCN6CCC(C(=O)OCCCP(=O)(O)O)CC6)CSc6ccccc6)c(S(=O)(=O)C(F)(F)F)c5)cc4)CC3)c2)c(-c2ccc(Cl)cc2)n1C(C)C
IC50 (second compound 0.1 µM): > 0.1 µM
IC50 (second compound 0.316 µM): > 0.1 µM
IC50 (second compound 1 µM): > 0.1 µM
IC50 (second compound 3.16 µM): > 0.1 µM
IC50 (second compound 10 µM): > 0.1 µM
viability, T/C (second compound 0.1 µM, first compound 0.000316 µM): 78.7%
viability, T/C (second compound 0.1 µM, first compound 0.001 µM): 77.9%
viability, T/C [1]: 72.1%
viability, T/C [2]: 71.5%
viability, T/C [3]: 77.2%
viability, T/C [4]: 50.6%
viability, T/C (second compound 0.316 µM, first compound 0.000316 µM): 71.8%
viability, T/C (second compound 0.316 µM, first compound 0.001 µM): 74.6%
viability, T/C [5]: 80.4%
viability, T/C [6]: 97.1%
viability, T/C [7]: 66.9%
viability, T/C [8]: 59.8%
viability, T/C (second compound 1 µM, first compound 0.000316 µM): 84.7%
viability, T/C (second compound 1 µM, first compound 0.001 µM): 78.4%
viability, T/C [9]: 93.8%
viability, T/C [10]: 72.1%
viability, T/C [11]: 55.9%
viability, T/C [12]: 65.2%
viability, T/C (second compound 3.16 µM, first compound 0.000316 µM): 86.7%
viability, T/C (second compound 3.16 µM, first compound 0.001 µM): 75.8%
viability, T/C (second compound 3.16 µM, first compound 0.00316 µM): 72.6%
viability, T/C (second compound 3.16 µM, first compound 0.01 µM): 63.3%
viability, T/C (second compound 3.16 µM, first compound 0.0316 µM): 61%
viability, T/C (second compound 3.16 µM, first compound 0.1 µM): 56%
viability, T/C (second compound 10 µM, first compound 0.000316 µM): 100%
viability, T/C (second compound 10 µM, first compound 0.001 µM): 84.8%
viability, T/C (second compound 10 µM, first compound 0.00316 µM): 66.1%
viability, T/C (second compound 10 µM, first compound 0.01 µM): 64.2%
viability, T/C (second compound 10 µM, first compound 0.0316 µM): 60.2%
viability, T/C (second compound 10 µM, first compound 0.1 µM): 73.6%
